Measured values as given in ChEMBL document CHEMBL5316353, “Antitarget, Anti-SARS-CoV-2 Leads, Drugs, and the Drug Discovery-Genetics Alliance Perspective” (J Med Chem, 2023).
Square brackets hold non-standard residues; d marks the D form. Peptide text beside a SMILES is read from it. βAla = NCCC(=O)O

Assays:
[1] = tested on: Middle East respiratory syndrome-related coronavirus; assay: Antiviral activity against MERS-CoV infected in human Huh-7 cells assessed as reduction of viral growth; type: functional, organism-based
SARS-CoV-2 [2] = type: functional, organism-based; settings: Severe acute respiratory syndrome coronavirus 2, HPAEpiC
SARS-CoV-2 [3] = type: functional, organism-based; settings: Severe acute respiratory syndrome coronavirus 2, Huh-7
[4] = tested on: Middle East respiratory syndrome-related coronavirus; type: functional, organism-based; settings: Calu-3
[5] = tested on: Middle East respiratory syndrome-related coronavirus; type: functional, organism-based, Vero E6; settings: Vero C1008

SMILES | EC50 [1] [nM] | EC50 (SARS-CoV-2 [2]) [nM] | EC50 (SARS-CoV-2 [3]) [nM] | IC50 [4] [nM] | IC50 [5] [nM]
CC(C)C[C@H](NC(=O)[C@H](CCC(=O)O)NC(=O)[C@H](CCC(=O)O)NC(=O)[C@H](CC(C)C)NC(=O)[C@H](CCCCN)NC(=O)[C@H](CCCCN)NC(=O)[C@H](CO)NC(=O)[C@H](CC(C)C)NC(=O)[C@H](CCC(=O)O)NC(=O)[C@H](CCC(=O)O)NC(=O)[C@H](CC(C)C)NC(=O)[C@H](CCCCN)NC(=O)[C@H](CCCCN)NC(=O)[C@H](CO)NC(=O)[C@H](CC(C)C)NC(=O)[C@H](CCC(=O)O)NC(=O)[C@H](CCC(=O)O)NC(=O)[C@H](CC(C)C)NC(=O)[C@H](CCCCN)NC(=O)[C@H](CCCCN)NC(=O)[C@H](CO)NC(=O)[C@H](CC(C)C)NC(=O)[C@H](CCC(=O)O)NC(=O)[C@H](CCC(=O)O)NC(=O)[C@H](CC(C)C)NC(=O)[C@H](CCCCN)NC(=O)[C@H](CCCCN)NC(=O)[C@H](CO)NC(=O)[C@H](CC(C)C)NC(=O)[C@H](CCC(=O)O)NC(=O)[C@H](CCC(=O)O)NC(=O)[C@@H](N)CC(C)C)C(=O)N[C@@H](CO)C(=O)N[C@@H](CCCCN)C(=O)N[C@@H](CCCCN)C(=O)NCCC(=O)N[C@@H](CCCCN)C(=O)O (H-LEELSKKLEELSKKLEELSKKLEELSKKLEELSKK[βAla]K-OH) | 240 | – | – | – | –
O=C[C@H](C[C@@H]1CCNC1=O)NC(=O)[C@@H]1[C@H]2CCC[C@H]2CN1C(=O)COc1ccc(Cl)cc1Cl (single isomer, unassigned) | – | 1.1 | 31 | – | –
CC[C@H](C)[C@H](NC(=O)[C@H](Cc1ccc(O)cc1)NC(=O)[C@H](CO)NC(=O)[C@H](CCC(=O)O)NC(=O)[C@H](CCC(=O)O)NC(=O)[C@H](CC(C)C)NC(=O)[C@H](CCCCN)NC(=O)[C@H](CCCCN)NC(=O)[C@@H](NC(=O)[C@@H](NC(=O)[C@H](CCC(=O)O)NC(=O)[C@H](CCC(=O)O)NC(=O)[C@H](CC(C)C)NC(=O)[C@H](CCCCN)NC(=O)[C@H](CCCCN)NC(=O)[C@H](CCSC)NC(=O)[C@H](CCC(=O)O)NC(=O)[C@H](Cc1ccc(O)cc1)NC(=O)[C@H](CCC(=O)O)NC(=O)[C@H](CC(C)C)NC(=O)[C@H](CC(=O)O)NC(=O)[C@H](CC(C)C)NC(=O)[C@H](CC(C)C)NC(=O)[C@@H](NC(=O)[C@@H](NC(=O)[C@H](CC(N)=O)NC(=O)[C@@H](NC(=O)[C@H](CCC(N)=O)NC(=O)[C@@H](NC(=O)[C@H](CC(C)C)NC(=O)[C@@H](N)CO)[C@@H](C)O)[C@@H](C)CC)[C@@H](C)O)[C@@H](C)O)C(C)C)C(C)C)C(=O)N[C@@H](CC(=O)O)C(=O)N[C@@H](CC(C)C)C(=O)N[C@@H](CCCCN)C(=O)N[C@@H](CCC(=O)O)C(=O)N[C@@H](CC(C)C)C(=O)O | – | – | – | 550 | 550
CC1(C)[C@@H]2[C@@H](C(=O)N[C@H](C=O)C[C@@H]3CCNC3=O)N(C(=O)COc3ccc(OC(F)(F)F)cc3)C[C@@H]21 | – | 1.2 | 35.3 | – | –
CC[C@H](C)[C@H](NC(=O)[C@H](Cc1ccc(O)cc1)NC(=O)[C@H](CO)NC(=O)[C@H](CCC(=O)O)NC(=O)[C@H](CC(N)=O)NC(=O)[C@H](CC(C)C)NC(=O)[C@H](C)NC(=O)[C@H](CCCCN)NC(=O)[C@@H](NC(=O)[C@@H](NC(=O)[C@H](CCC(N)=O)NC(=O)[C@H](CCC(N)=O)NC(=O)[C@H](CC(C)C)NC(=O)[C@H](CO)NC(=O)[C@H](CCCNC(=N)N)NC(=O)[C@H](CCSC)NC(=O)[C@H](CCC(=O)O)NC(=O)[C@H](Cc1ccc(O)cc1)NC(=O)[C@H](CCC(=O)O)NC(=O)[C@H](CC(C)C)NC(=O)[C@H](CC(=O)O)NC(=O)[C@H](CC(C)C)NC(=O)[C@H](CC(C)C)NC(=O)[C@@H](NC(=O)[C@@H](NC(=O)[C@H](CC(N)=O)NC(=O)[C@@H](NC(=O)[C@H](CCC(N)=O)NC(=O)[C@@H](NC(=O)[C@H](CC(C)C)NC(=O)[C@@H](N)CO)[C@@H](C)O)[C@@H](C)CC)[C@@H](C)O)[C@@H](C)O)C(C)C)C(C)C)C(=O)N[C@@H](CC(=O)O)C(=O)N[C@@H](CC(C)C)C(=O)N[C@@H](CCCCN)C(=O)N[C@@H](CCC(=O)O)C(=O)N[C@@H](CC(C)C)C(=O)O | – | – | – | 550 | 550
